Laboratory results published in patent US20030187048A1, “Method for inhibiting skin lesion formation using histamine as the active ingredient” (priority 1991, published 2003).
Where two headings read alike, the source gives them in different places.

How the values were obtained:
[1] = tested on: Photodermatitis (second degree sunburn); settings: for Avg blister/hr: from count at 65 hours; for Discomfort on Lotion or Gel Application / General Discomfort: scored 1 (none) to 5 (worst)
Method: Treatment consisted of topical application of all lotion or gel concentrations to their respective, randomly assigned quadrants ever 30 minutes for the first 2 hours following the irradiation period, followed by lotion or gel or applications every hour for four hours, then lotion or gel applications three times a day until 65 hours elapsed post 2-z irradiation. Photographs were taken during the treatment period and upon the formation of identifiable blisters, the numbers of blisters in each quadrant were recorded at three times during-the treatment period with cessation of lotion or gel application and data collection at the 65 hours point as exfoliation (peeling) of the outer layers of the epidermis began at 70 hours.
Subjective evaluation involved an estimate of pain/discomfort following lotion or gel application in each quadrant as well as a comparative general discomfort level for each quadrant during the treatment period. Pain/discomfort was scored from 1 (none) to 5 (worst).

[2] = tested on: cold sore (herpes labialis) lesions
[3] = 0.0045% IEP, lower right quadrant
[4] = 0.0067% IEP, upper left quadrant

## NCCc1c[nH]cn1 [IEP, 1H-imidazole-4-ethanamine,phosphate]
[1]; [3]
  Total # of blisters at 42 hrs: 7
  Total # of blisters at 52 hrs: 7
  Total # of blisters at 65 hrs: 14
  Avg blister/hr: 0.215 blister/hr
[1]; 0.0045% lotion or gel
  Discomfort on Lotion or Gel Application: 2
  General Discomfort: 1
[1]; [4]
  Total # of blisters at 52 hrs: 2
  Total # of blisters at 65 hrs: 10
  Avg blister/hr: 0.154 blister/hr
[1]; 0.0067% IEP, upper left quadrant, hours post irradiation
  Total # of blisters at 42 hrs: 2
[1]; 0.0067% lotion or gel
  Discomfort on Lotion or Gel Application: 1
  General Discomfort: 1
[1]; active lotion or gel (0.0045% and 0.0067% combined), p<0.05
  Treatment effect vs placebo, total rate of blister formation: statistically significant treatment effect
[1]; in vivo
  Untoward effects: no untoward effects
[2]; 0.00083% gel, 4 patients
  Mean percentage decay rate of lesions, Conc. Mean: 23.1%
[2]; 0.00083% gel, 48 Hours
  Average % reduction in lesions from original size: 14.0%
[2]; 0.00083% gel, 72 Hours
  Average % reduction in lesions from original size: 27.6%
[2]; 0.00083% gel, 96 Hours
  Average % reduction in lesions from original size: 44.3%
[2]; 0.00083% gel, Day 1
  Burning, average percent reduction of original symptom: 20.9%
  Itching, average percent reduction of original symptom: 41.7%
  Pain, average percent reduction of original symptom: 34.2%
  Spreading, average percent reduction of original symptom: 0%
  Swelling, average percent reduction of original symptom: 10.4%
[2]; 0.00083% gel, Day 2
  Burning, average percent reduction of original symptom: 66.7%
  Itching, average percent reduction of original symptom: 47.8%
  Pain, average percent reduction of original symptom: 51.7%
  Spreading, average percent reduction of original symptom: 0%
  Swelling, average percent reduction of original symptom: 37.5%
[2]; 0.00083% gel, Day 3
  Burning, average percent reduction of original symptom: 58.3%
  Itching, average percent reduction of original symptom: 16.7%
  Pain, average percent reduction of original symptom: 51.7%
  Spreading, average percent reduction of original symptom: 11.1%
[2]; 0.00083% gel, Day 4
  Burning, average percent reduction of original symptom: 75.0%
  Itching, average percent reduction of original symptom: 11.1%
  Pain, average percent reduction of original symptom: 65.0%
  Spreading, average percent reduction of original symptom: 22.2%
  Swelling, average percent reduction of original symptom: 75.0%
[2]; 0.00083% gel, Day 5
  Burning, average percent reduction of original symptom: 77.8%
  Itching, average percent reduction of original symptom: 41.7%
  Pain, average percent reduction of original symptom: 64.4%
  Spreading, average percent reduction of original symptom: 50.0%
  Swelling, average percent reduction of original symptom: 55.6%
[2]; 0.00083% gel, Day 6
  Burning, average percent reduction of original symptom: 66.7%
  Itching, average percent reduction of original symptom: 75.0%
  Pain, average percent reduction of original symptom: 66.7%
  Spreading, average percent reduction of original symptom: 66.7%
  Swelling, average percent reduction of original symptom: 0%
[2]; 0.0033% gel, 5 patients
  Mean percentage decay rate of lesions, Conc. Mean: 24.1%
[2]; 0.0033% gel, 24 Hours
  Average % reduction in lesions from original size: 11.8%
[2]; 0.0033% gel, 48 Hours
  Average % reduction in lesions from original size: 44.6%
[2]; 0.0033% gel, 72 Hours
  Average % reduction in lesions from original size: 57.8%
[2]; 0.0033% gel, 96 Hours
  Average % reduction in lesions from original size: 61.6%
[2]; 0.0033% gel, Day 1
  Burning, average percent reduction of original symptom: 21.7%
  Itching, average percent reduction of original symptom: 23.4%
  Spreading, average percent reduction of original symptom: 50.0%
[2]; 0.0033% gel, Day 2
  Burning, average percent reduction of original symptom: 37.5%
  Itching, average percent reduction of original symptom: 55.0%
  Spreading, average percent reduction of original symptom: 50.0%
  Swelling, average percent reduction of original symptom: 45.4%
[2]; 0.0033% gel, Day 3
  Burning, average percent reduction of original symptom: 62.5%
  Itching, average percent reduction of original symptom: 58.5%
  Pain, average percent reduction of original symptom: 33.3%
  Spreading, average percent reduction of original symptom: 16.7%
  Swelling, average percent reduction of original symptom: 55.8%
[2]; 0.0033% gel, Day 4
  Burning, average percent reduction of original symptom: 68.8%
  Itching, average percent reduction of original symptom: 75.0%
  Pain, average percent reduction of original symptom: 66.8%
  Spreading, average percent reduction of original symptom: 100%
  Swelling, average percent reduction of original symptom: 55.9%
[2]; 0.0033% gel, Day 5
  Burning, average percent reduction of original symptom: 100%
  Itching, average percent reduction of original symptom: 82.5%
  Pain, average percent reduction of original symptom: 66.7%
  Spreading, average percent reduction of original symptom: 100%
  Swelling, average percent reduction of original symptom: 65.0%
[2]; 0.0033% gel, Day 6
  Burning, average percent reduction of original symptom: 87.5%
  Itching, average percent reduction of original symptom: 100%
  Pain, average percent reduction of original symptom: 83.4%
  Swelling, average percent reduction of original symptom: 66.7%
[2]; 0.0067% gel, 4 patients
  Mean percentage decay rate of lesions, Conc. Mean: 54.4%
[2]; 0.0067% gel, 24 Hours
  Average % reduction in lesions from original size: 37.5%
[2]; 0.0067% gel, 48 Hours
  Average % reduction in lesions from original size: 67.0%
[2]; 0.0067% gel, 72 Hours
  Average % reduction in lesions from original size: 86.2%
[2]; 0.0067% gel, 96 Hours
  Average % reduction in lesions from original size: 98.9%
[2]; 0.0067% gel, Day 1
  Burning, average percent reduction of original symptom: 50.0%
  Itching, average percent reduction of original symptom: 50.0%
  Pain, average percent reduction of original symptom: 66.7%
  Spreading, average percent reduction of original symptom: 66.7%
  Swelling, average percent reduction of original symptom: 50.0%
[2]; 0.0067% gel, Day 2
  Burning, average percent reduction of original symptom: 100%
  Itching, average percent reduction of original symptom: 100%
  Pain, average percent reduction of original symptom: 83.4%
  Spreading, average percent reduction of original symptom: 100%
  Swelling, average percent reduction of original symptom: 83.3%
[2]; 0.0067% gel, Day 3
  Burning, average percent reduction of original symptom: 100%
  Itching, average percent reduction of original symptom: 100%
  Pain, average percent reduction of original symptom: 55.6%
  Spreading, average percent reduction of original symptom: 100%
  Swelling, average percent reduction of original symptom: 54.2%
[2]; 0.0067% gel, Day 4
  Burning, average percent reduction of original symptom: 100%
  Itching, average percent reduction of original symptom: 75.0%
  Pain, average percent reduction of original symptom: 55.6%
  Spreading, average percent reduction of original symptom: 100%
  Swelling, average percent reduction of original symptom: 61.7%
[2]; 0.0067% gel, Day 5
  Burning, average percent reduction of original symptom: 100%
  Itching, average percent reduction of original symptom: 100%
  Pain, average percent reduction of original symptom: 100%
  Spreading, average percent reduction of original symptom: 100%
  Swelling, average percent reduction of original symptom: 66.7%
[2]; 0.0067% gel, Day 6
  Spreading, average percent reduction of original symptom: 100%
  Swelling, average percent reduction of original symptom: 100%
[2]; 0.0067% treatment vs placebo, p<0.05
  Reducing lesion size over time vs placebo (analysis of variance): significantly more effective
[2]; in vivo
  Untoward reactions: no untoward reactions
